Measurements as given in paper PMC6843571, “Effects of Single Nucleotide Polymorphism Ala270Ser (rs316019) on the Function and Regulation of hOCT2” (Biomolecules, 2019).
Changes are numbered by the printed parent chain. Several values for one entry are separate records, joined by “and”; a condition that tells them apart may be missing. Equal entries are not always repeated.

Tests used:
[1] = target: T1, hOCT2 WT (Homo sapiens, UniProt O15244, S270A); assay: ASP+ uptake saturation experiments (microfluorimetry), hOCT2 WT; type: cell-based; conditions: hOCT2 WT in stably transfected HEK cells; specific uptake
T1 construct: expressed in transfected cells
T1 sequence (O15244 1-555 S270A): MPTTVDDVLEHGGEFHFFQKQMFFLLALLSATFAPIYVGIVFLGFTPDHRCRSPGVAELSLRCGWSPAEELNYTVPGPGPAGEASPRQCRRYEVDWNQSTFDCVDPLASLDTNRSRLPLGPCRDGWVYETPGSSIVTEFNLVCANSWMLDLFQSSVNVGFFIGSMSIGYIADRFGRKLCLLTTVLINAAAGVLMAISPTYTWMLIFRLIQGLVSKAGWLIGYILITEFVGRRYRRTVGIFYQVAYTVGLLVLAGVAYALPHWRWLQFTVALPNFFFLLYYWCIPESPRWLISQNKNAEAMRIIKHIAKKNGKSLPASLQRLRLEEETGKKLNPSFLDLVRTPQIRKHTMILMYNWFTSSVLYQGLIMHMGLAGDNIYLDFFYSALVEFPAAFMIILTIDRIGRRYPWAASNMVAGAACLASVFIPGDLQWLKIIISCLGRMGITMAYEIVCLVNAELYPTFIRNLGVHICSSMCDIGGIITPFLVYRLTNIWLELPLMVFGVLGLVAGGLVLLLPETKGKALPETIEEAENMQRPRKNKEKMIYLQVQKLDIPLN
Procedure: (§1) Measurement of hOCT2 function in HEK293 cells was performed using microfluorimetry with the fluorescent organic cation 4-(4-(dimethylamino)styryl)-N-methylpyridinium (ASP^+) as the substrate, as described previously in detail. As shown in previous work, this method allows a real-time measurement of the transporter function. The initial rate of ASP^+ uptake was calculated, as it reflects the activity of the transporter.
(§2) Briefly, ASP^+ cellular fluorescence was measured in a microtiterplate reader (Tecan infinite m200; Tecan, Crailsheim, Germany) at 37 °C using an excitation wavelength of 450 nm and an emission of 590 nm. Before fluorescence measurements, cells confluently grown in 96-well plates were washed in ringer-like solution (in mmol/L: 145 NaCl, 1.6 K2HPO4, 0.4 KH2PO4, 5 D-glucose, 1 MgCl2, 1.3 calcium gluconate, pH 7.4). Cell fluorescence was measured before and after ASP^+ addition to the cells. The kinetic characteristics of hOCT WT and hOCT2 Ala270Ser were investigated performing saturation experiments with increasing ASP^+ concentrations. Non-hOCT2-mediated ASP^+ uptake was evaluated in the presence of a huge amount (1 mM) of tetrapentylammonium (TPA^+) and subtracted from the total ASP^+ uptake in order to evaluate the ASP^+ uptake mediated specifically by hOCT2, as shown already in References. […]

[2] = target: T2, hOCT2 WT (Homo sapiens, UniProt O15244); assay: as above; type: cell-based; conditions: hOCT2 WT in stably transfected HEK cells; specific uptake (minus uptake with 1 mM TPA^+); 37 °C, pH 7.4
T2 construct: expressed in transfected cells
T2 sequence (O15244 1-555 S270A): T1 sequence (O15244 1-555 S270A)
Procedure: as §1, §2

[3] = target: T3, hOCT2 Ala270Ser (Homo sapiens, UniProt O15244); assay: ASP+ uptake saturation experiments (microfluorimetry), hOCT2 Ala270Ser; type: cell-based; conditions: hOCT2 Ala270Ser in stably transfected HEK cells
T3 construct: expressed in transfected cells
T3 sequence (O15244 1-555): T1 sequence (O15244 1-555 S270A) with A270S
Procedure: as §1, §2

[4] = target: T1, hOCT2 WT; assay: Inhibition of ASP+ uptake by competitors, hOCT2 WT; type: cell-based; conditions: 1 µM ASP^+, hOCT2 WT cells; for hOCT2 WT logIC50 ± SEM: log of IC50, in parenthesis in Table 1
[5] = target: T2, hOCT2 WT; assay: Inhibition of ASP+ uptake by competitors, hOCT2 WT; type: cell-based; conditions: 1 µM ASP^+; HEK293 hOCT2 WT cells; 37 °C, pH 7.4; read-out: hOCT2 WT IC50 (apparent affinity, inhibition of ASP^+ uptake)
[6] = target: T3, hOCT2 Ala270Ser; assay: Inhibition of ASP+ uptake by competitors, hOCT2 Ala270Ser; type: cell-based; conditions: 1 µM ASP^+; for IC50: HEK293 hOCT2 Ala270Ser cells, 37 °C, pH 7.4, read-out: hOCT2 Ala270Ser IC50 (apparent affinity, inhibition of ASP^+ uptake); for hOCT2 Ala270Ser logIC50 ± SEM: log of IC50, in parenthesis in Table 1
[7] = tested on: hOCT2 Ala270Ser cells; assay: Cytoviability (MTT) assay, hOCT2 Ala270Ser cells; type: cell-based, human
Procedure: (§3) The cytotoxicity of cisplatin was evaluated using a modified 3-(4,5-dimethylthiazol-2-yl)-2,5-diphenyltetrazoliumbromid (MTT) assay. The HEK293 cells grown for 24 hours in 96-well plates were incubated for 10 min at 37 °C with different concentrations of cisplatin (Calbiochem, Merck Chemicals GmbH, Darmstadt, Germany) dissolved in a ringer-like solution. The cisplatin solution was then removed, and the cells were grown in fresh medium for 48 hours. Afterwards, the cells were incubated with 10 µL MTT (Sigma, Steinheim, Germany) solution containing 5 mg/mL of the dye for three hours at 37 °C. Then, MTT was removed, and the cells were lysed with a solution containing 10% (w/v) sodium dodecyl sulfate and 40% (v/v) dimethylformamide. After 90 min, absorption was measured at 570 nm in a multiplate reader (Tecan infinite m200, Tecan, Tecan Group Ltd., Crailsheim, Germany).

[8] = target: T2, hOCT2 WT; assay: Cellular platinum accumulation by ICP-MS, hOCT2 WT cells; type: cell-based; conditions: 2 min incubation with 100 µM cisplatin, mean ± SEM
Procedure: (§4) Intracellular cisplatin concentrations were determined using inductively coupled plasma mass spectrometry (ICP-MS), which provides information on the elemental concentration in samples [27, 28], as described before. To do this, cells were grown for five days on 6-well plates and incubated at 37 °C for 2 min with 2 mL of 100 µM cisplatin freshly prepared in a ringer-like solution. After incubation, cells were rapidly washed with ice-cold PBS and then hypotonically lysed using distilled water and sonication for 15 min. For the ICP-MS analysis, 100 µL of cell lysates together with 100 µL of rhodium standard (Rh 1000 µg/mL, Scpscience, Marktoberdorf, Germany) were mixed with 9.8 mL 2% HNO3. Standard platinum for ICP (Merck) was diluted in 2% HNO3, and linear regression was performed (r² = 0.998 and 0.999). Samples were analyzed using ICP-MS iCap QC, autosampler AccelaAS (Thermo Fisher Scientific, Bremen, Germany) and Qtegra ISDS software (Thermo Fisher Scientific). The protein content of lysed cells was determined by absorption measurements using PicoDrop Pico 1000 (PicoDrop, Saffron Walden, UK).

[9] = tested on: hOCT2 WT cells; assay: Cytoviability (MTT) assay, hOCT2 WT cells; type: cell-based, human
Procedure: as §3

[10] = target: T3, hOCT2 Ala270Ser; assay: Cellular platinum accumulation by ICP-MS, hOCT2 Ala270Ser cells; type: cell-based; conditions: 2 min incubation with 100 µM cisplatin, mean ± SEM
Procedure: as §4

[11] = tested on: hOCT2 Ala270Ser-mediated ASP^+ uptake; assay: Rapid regulation of ASP+ uptake, hOCT2 Ala270Ser cells; type: cell-based, human; conditions: 1 µM ASP^+, compared to control
Procedure: (§5) Moreover, since it is known that the activity of hOCT2 can be regulated by several kinases, the effect of the Ala270Ser substitution on regulation by calmodulin and p56^lck tyrosine kinase of hOCT2 was investigated. The regulation by these two pathways is conserved along all the OCTs. To study the rapid regulation of hOCT2, cells were incubated for 10 min at 37 °C with calmidazolium (5 µM), a potent specific inhibitor of calmodulin [24], with aminogenistein (10 µM), a specific inhibitor of p56^lck tyrosine kinase, or with ringer-like solution as a control. Regulators were dissolved in ethanol (calmidazolium) or DMSO (aminogenistein) at a concentration that had no impact on ASP^+ transport. After incubation, fluorescence measurements were carried out with 1 µM ASP^+.

[12] = tested on: hOCT2 WT-mediated ASP^+ uptake; assay: Rapid regulation of ASP+ uptake, hOCT2 WT cells; type: cell-based, human; conditions: 1 µM ASP^+, compared to control
Procedure: as §5

[13] = 10 min incubation, then 48 hours in fresh medium
[14] = read-out: EC50 (concentration giving 50% of the toxic effect), MTT assay, 10 min incubation, then 48 hours in fresh medium
[15] = 10 min incubation with 10 µM aminogenistein
[16] = 10 min incubation with 5 µM calmidazolium

Structure (SMILES) | hOCT2 WT logIC50 ± SEM [4] | IC50 [5] | IC50 [6] | hOCT2 Ala270Ser logIC50 ± SEM ([6]; hOCT2 Ala270Ser cells) | also measured
CN(C)c1ccc(C=Cc2cc[n+](C)cc2)cc1 [ASP^+, 4-(4-(dimethylamino)styryl)-N-methylpyridinium] | – | – | – | – | Vmax of ASP^+ uptake [1]: 516 ± 23 arbitrary units/µg protein s^2; Km [2]: 4 ± 1 µM; Vmax of ASP^+ uptake ([3]; specific uptake): 484 ± 50 arbitrary units/µg protein s^2; Km ([3]; specific uptake (minus uptake with 1 mM TPA^+), 37 °C, pH 7.4): 4.9 ± 1.6 µM
CN/C(=N/CCSCc1nc[nH]c1C)NC#N [Cimetidine, cimetidine] | −4.64 ± 0.12 | 23 µM | 40 µM | −4.40 ± 0.19 | –
N.N.[Cl][Pt][Cl] [Cisplatin, cisplatin] | −4.80 ± 0.10 | 16 µM | 9 µM | −5.04 ± 0.11 | logEC50 ± SEM, MTT assay [7, 13]: −4.48 ± 0.05; EC50 [7, 14]: 33 µM; Cellular platinum concentration [8]: 264 ± 10 µg Pt/g protein; logEC50 ± SEM, MTT assay [9, 13]: −4.89 ± 0.11; EC50 [9, 14]: 13 µM; Cellular platinum concentration [10]: 221 ± 10 µg Pt/g protein
CN1CC(=O)NC1=N [Creatinine, creatinine] | −1.73 ± 0.04 | 18600 µM | 9800 µM | −2.01 ± 0.06 | –
NCCc1c[nH]cn1 [Histamine, histamine] | −2.33 ± 0.06 | 4600 µM | 4000 µM | −2.40 ± 0.07 | –
CN(C)CCCN1c2ccccc2CCc2ccccc21 [Imipramine, imipramine] | −2.71 ± 0.06 | – | – | – | –
CN(C)C(=N)N=C(N)N [Metformin, metformin] | −3.06 ± 0.05 | 900 µM and 868 µM | 800 µM and 848 µM | −3.07 ± 0.05 | –
Cc1ncc(C[n+]2csc(CCO)c2C)c(N)n1 [Thiamin, thiamine] | −4.06 ± 0.05 | 87 µM | 106 µM | −3.98 ± 0.06 | –
N[C@@H](Cc1c[nH]c2ccccc12)C(=O)O [Tryptophan, tryptophan] | −2.27 ± 0.28 | ~5400 µM | ~2400 µM | −2.61 ± 0.28 | Inhibition of ASP^+ uptake (in words) [4]: inhibit a small part of the ASP^+ uptake only at very high concentrations; Inhibition of ASP^+ uptake (in words) ([6]; hOCT2 Ala270Ser cells): inhibit a small part of the ASP^+ uptake only at very high concentrations
Nc1ccc(-c2cc(=O)c3cc(O)ccc3o2)cc1 [aminogenistein] | – | – | – | – | Effect on hOCT2 Ala270Ser-mediated ASP^+ uptake (inhibition of p56^lck tyrosine kinase) [11, 15]: strong significant inhibition; Effect on hOCT2 WT-mediated ASP^+ uptake (inhibition of p56^lck tyrosine kinase) [12, 15]: strong significant inhibition
Clc1ccc(C(c2ccc(Cl)cc2)n2cc[n+](CC(OCc3ccc(Cl)cc3Cl)c3ccc(Cl)cc3Cl)c2)cc1 (stereo not drawn) [calmidazolium] | – | – | – | – | Effect on hOCT2 Ala270Ser-mediated ASP^+ uptake (inhibition of calmodulin) [11, 16]: strong significant inhibition; Effect on hOCT2 WT-mediated ASP^+ uptake (inhibition of calmodulin) [12, 16]: strong significant inhibition
